In this assay the target is Human MAT2A (Homo sapiens (Human), UniProt P31153). The experiment in a line: Phosphate Sensor Fluorescence Assay (MAT2A enzyme inhibition). The following applies: L-methionine 500 uM, ATP 500 uM. The class given is biochemical. The method, then:
The ability of the compound of present disclosure to inhibit MAT2A enzyme was determined using the Malachite Green or Phosphate Sensor Fluorescence Assay described below.
B. Phosphate Sensor Fluorescence Assay
MAT2A enzyme is incubated with a test compound in DMSO or DMSO and its substrates (L-methionine and ATP) in a microtiter plate. The enzymatic reaction is stopped by the addition of Working Phosphate Sensor Mixture. The plate is analyzed for fluorescence at 450 nm.
Assay Buffer: 50 mM Tris, pH 7.5/50 mM KCl/10 mM MgCl2/0.01% Brij-35/1 mM DTT/0.1% BGG/40 nM PNP/6 uM 7-MEG
L-methionine: 500 uM before the addition of Working Phosphate Sensor Mixture
ATP: 500 uM before the addition of Working Phosphate Sensor Mixture
Test compounds or DMSO were added to the appropriate well suing D300e digital dispenser. 5 μl/well of Assay Buffer was added to the wells corresponding to the negative control and 5 μl/well of MAT2A was added to all the wells except for those corresponding to the negative control. After incubating the plate at room temperature for 15 minutes, 5 μl/well of the 1 mM L-methionine/1 mM ATP mixture was added to all wells. The plate was centrifuged at 1000 rpm for 1 minute and then incubated at room temperature for 1 hour. 5 μl of the Working Phosphate Sensor Mixture was added to all wells and the plate was centrifuged at 1000 rpm for 1 minute. The plate was read for fluorescence at 450 nm after exciting at 430 nm.
Percent inhibition was calculated in Chemical and Biological Information System (CBIS), (ChemInnovation Software Inc.). Curves were fitted by CBIS as % inhibition vs. log [compound concentration] using a 4-parameter inhibition model. Fit=(A+((B−A)/(1+((C/x)^D)))) Res=(y−fit)

Data on three molecules can be found in patent publication US11130759B1, “2-oxoquinazoline derivatives as methionine adenosyltransferase 2A inhibitors” (IDEAYA BIOSCIENCES, INC., priority 2018, dated 2021).

In general, IC50 refers to the concentration needed to halve the response being measured. A higher IC50 goes with weaker potency.

Sequence of Human MAT2A (P31153 whole entry): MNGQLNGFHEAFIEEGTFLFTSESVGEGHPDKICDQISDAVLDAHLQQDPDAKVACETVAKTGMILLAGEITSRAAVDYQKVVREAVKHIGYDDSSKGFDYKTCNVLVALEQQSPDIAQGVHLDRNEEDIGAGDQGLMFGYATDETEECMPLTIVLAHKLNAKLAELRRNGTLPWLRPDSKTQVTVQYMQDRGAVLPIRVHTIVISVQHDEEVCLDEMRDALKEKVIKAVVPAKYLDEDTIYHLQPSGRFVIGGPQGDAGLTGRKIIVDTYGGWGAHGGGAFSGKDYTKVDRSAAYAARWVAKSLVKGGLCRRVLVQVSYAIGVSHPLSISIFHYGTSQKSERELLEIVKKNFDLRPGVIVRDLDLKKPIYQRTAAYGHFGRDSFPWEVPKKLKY

In the case of “8-chloro-1-(2-chlorophenyl)-7- (trifluoro-methyl)pyrido[2,3- d]pyrimidine-2,4(1H,3H)-dione-1 [Example 360]”, the IC50 (numeric bound) is greater than 10 µM.
In the case of `CCCc1ccc2c(N(C)C)nc(=O)n(-c3ccccc3)c2c1` [compound 98], where the note is “class symbols”, the IC50 is less than 0.2 µM.
On the same count and under the same terms, the value for `O=c1nc(N2CC[C@@H](O)C2)c2ccc(Cl)cc2n1-c1ccccc1O` [compound 152] was less than 0.2 µM.
